Source: patent US20110230481A2, “DERIVATIVES OF TETRABROMOBENZIMIDAZOLE, A PROCESS FOR THE PREPARATION THEREOF, A PHARMACEUTICAL COMPOSITION COMPRISING THE SAME, A METHOD OF USING THE SAME, A METHOD FOR MODULATING OR REGULATING SERINE/THREONINE KINASES, AND SERINE/THREONINE KINASES MODULATING AGENT” (SELVITA S.A., priority 2009, published 2011)

Key:
Experiment in all cases: KINOMEscan Max
Type in all cases: binding
[1] = biological target: T1, RET(V804L) (Homo sapiens, UniProt P07949, V804L)
T1 construct: DNA tag (qPCR read-out)
Procedure, shortened: (§1)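 Compound displacement of DNA-tagged kinase from immobilized active-site ligand; qPCR of tag as read-out.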

[2] = biological target: T2, ERBB4 (Homo sapiens, UniProt Q15303)
T2 construct: purchased Ambit Kinomescan (contract panel, KINOMEscan Max)
Procedure, shortened: as §1

[3] = biological target: BMPR2 (Homo sapiens, UniProt Q13873); settings: 1 μM
Procedure, shortened: as §1

[4] = biological target: T3, PRKD1 (Homo sapiens, UniProt Q15139)
T3 construct: DNA tag (qPCR read-out)
Procedure, shortened: as §1

[5] = biological target: T4, PDPK1 (Homo sapiens, UniProt O15530)
T4 construct: purchased Ambit (KINOMEscan Max service)
Procedure, shortened: as §1

[6] = biological target: T5, SRPK2 (Homo sapiens, UniProt P78362)
T5 construct: DNA tag (qPCR read-out)
Procedure, shortened: as §1

[7] = biological target: T6, MYLK2 (Homo sapiens, UniProt Q9H1R3)
T6 construct: purchased Ambit (KINOMEscan Max service)
T6 sequence (Q9H1R3 whole entry): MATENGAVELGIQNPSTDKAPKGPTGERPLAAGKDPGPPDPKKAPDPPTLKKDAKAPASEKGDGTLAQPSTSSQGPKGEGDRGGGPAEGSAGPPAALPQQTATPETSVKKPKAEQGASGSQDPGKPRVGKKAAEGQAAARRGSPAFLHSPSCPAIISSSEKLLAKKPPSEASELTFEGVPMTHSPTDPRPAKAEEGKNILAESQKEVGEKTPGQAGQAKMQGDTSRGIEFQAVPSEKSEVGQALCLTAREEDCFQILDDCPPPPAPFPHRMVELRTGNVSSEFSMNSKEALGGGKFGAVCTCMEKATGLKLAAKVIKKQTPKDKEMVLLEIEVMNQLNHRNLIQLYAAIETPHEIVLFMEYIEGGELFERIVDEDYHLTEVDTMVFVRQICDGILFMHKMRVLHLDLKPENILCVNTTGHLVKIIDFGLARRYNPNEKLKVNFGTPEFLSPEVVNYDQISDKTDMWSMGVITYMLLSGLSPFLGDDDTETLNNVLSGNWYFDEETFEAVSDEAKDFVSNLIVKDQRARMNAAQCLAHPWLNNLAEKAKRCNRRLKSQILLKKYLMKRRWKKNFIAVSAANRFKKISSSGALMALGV
Procedure, shortened: as §1

[8] = biological target: T7, EPHA6 (Homo sapiens, UniProt Q9UF33)
T7 construct: purchased Ambit (KINOMEscan Max panel service)
Procedure, shortened: as §1

[9] = biological target: ABL1(H396P)nonphosphorylated (Homo sapiens, UniProt P00519, H396P)
Procedure, shortened: as §1

[10] = biological target: NEK5 (Homo sapiens, UniProt Q6P3R8)
Procedure, shortened: as §1

[11] = biological target: T8, CAMK1D (Homo sapiens, UniProt Q8IU85)
T8 construct: DNA tag (qPCR label); purchased Ambit Kinomescan (contract screening)
Procedure, shortened: as §1

[12] = biological target: T9, ERN1 (Homo sapiens, UniProt O75460)
T9 construct: DNA tag (qPCR read-out)
Procedure, shortened: as §1

[13] = biological target: TRPM6 (Homo sapiens, UniProt Q9BX84)
Procedure, shortened: as §1

[14] = biological target: T10, ERK2 (Homo sapiens, UniProt P28482)
T10 construct: purchased Ambit Kinomescan (contract panel, KINOMEscan Max)
T10 sequence (P28482 whole entry): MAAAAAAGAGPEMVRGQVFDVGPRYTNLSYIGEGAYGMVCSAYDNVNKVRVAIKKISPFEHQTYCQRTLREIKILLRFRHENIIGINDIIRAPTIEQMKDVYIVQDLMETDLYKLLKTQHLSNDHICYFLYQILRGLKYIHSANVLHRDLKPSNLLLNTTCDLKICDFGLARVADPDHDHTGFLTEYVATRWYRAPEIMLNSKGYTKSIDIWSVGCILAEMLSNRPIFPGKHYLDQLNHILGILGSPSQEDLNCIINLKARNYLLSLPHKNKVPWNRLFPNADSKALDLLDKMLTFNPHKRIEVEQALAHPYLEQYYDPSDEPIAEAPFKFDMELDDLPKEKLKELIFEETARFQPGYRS
Procedure, shortened: as §1

[15] = biological target: T11, STK16 (Homo sapiens, UniProt O75716)
T11 construct: DNA tag (qPCR read-out)
Procedure, shortened: as §1

[16] = biological target: T12, MAP3K1 (Homo sapiens, UniProt Q13233)
T12 construct: purchased Ambit Kinomescan (contract panel)
Procedure, shortened: as §1

[17] = biological target: T13, RIPK1 (Homo sapiens, UniProt Q13546)
T13 construct: DNA tag (qPCR read-out)
Procedure, shortened: as §1

[18] = biological target: T14, PRKCH (Homo sapiens, UniProt P24723)
T14 construct: DNA tag (qPCR read-out); purchased Ambit Kinomescan
T14 sequence (P24723 whole entry): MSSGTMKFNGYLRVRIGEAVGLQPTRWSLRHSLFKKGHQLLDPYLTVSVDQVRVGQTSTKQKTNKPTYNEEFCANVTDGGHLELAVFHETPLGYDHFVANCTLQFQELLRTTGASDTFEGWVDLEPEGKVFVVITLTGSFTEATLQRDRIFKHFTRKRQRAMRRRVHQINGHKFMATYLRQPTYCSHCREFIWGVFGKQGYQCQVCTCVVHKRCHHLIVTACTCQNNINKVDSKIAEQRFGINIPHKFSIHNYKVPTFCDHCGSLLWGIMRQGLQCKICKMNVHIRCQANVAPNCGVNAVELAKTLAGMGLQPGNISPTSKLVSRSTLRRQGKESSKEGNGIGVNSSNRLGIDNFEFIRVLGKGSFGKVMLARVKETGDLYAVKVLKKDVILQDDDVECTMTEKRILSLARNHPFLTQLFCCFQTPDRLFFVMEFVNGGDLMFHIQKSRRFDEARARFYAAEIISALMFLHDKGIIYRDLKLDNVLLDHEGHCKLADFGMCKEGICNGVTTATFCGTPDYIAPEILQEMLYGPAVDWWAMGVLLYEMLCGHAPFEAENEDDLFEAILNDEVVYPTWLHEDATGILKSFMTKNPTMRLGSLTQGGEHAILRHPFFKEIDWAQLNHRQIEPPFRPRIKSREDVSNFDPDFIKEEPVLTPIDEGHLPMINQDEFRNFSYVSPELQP
Procedure, shortened: as §1

[19] = biological target: T15, ROS1 (Homo sapiens, UniProt P08922)
T15 construct: DNA tag (qPCR read-out)
Procedure, shortened: as §1

[20] = biological target: T16, PIK4CB (Homo sapiens, UniProt Q9UBF8)
T16 construct: DNA tag (qPCR read-out)
Procedure, shortened: as §1

[21] = biological target: T17, AKT3 (Homo sapiens, UniProt Q9Y243)
T17 construct: purchased Ambit (KINOMEscan Max service)
Procedure, shortened: as §1

[22] = biological target: T18, FGFR1 (Homo sapiens, UniProt P11362)
T18 construct: purchased Ambit Kinomescan (contract panel, KINOMEscan Max)
T18 sequence (P11362 22-822): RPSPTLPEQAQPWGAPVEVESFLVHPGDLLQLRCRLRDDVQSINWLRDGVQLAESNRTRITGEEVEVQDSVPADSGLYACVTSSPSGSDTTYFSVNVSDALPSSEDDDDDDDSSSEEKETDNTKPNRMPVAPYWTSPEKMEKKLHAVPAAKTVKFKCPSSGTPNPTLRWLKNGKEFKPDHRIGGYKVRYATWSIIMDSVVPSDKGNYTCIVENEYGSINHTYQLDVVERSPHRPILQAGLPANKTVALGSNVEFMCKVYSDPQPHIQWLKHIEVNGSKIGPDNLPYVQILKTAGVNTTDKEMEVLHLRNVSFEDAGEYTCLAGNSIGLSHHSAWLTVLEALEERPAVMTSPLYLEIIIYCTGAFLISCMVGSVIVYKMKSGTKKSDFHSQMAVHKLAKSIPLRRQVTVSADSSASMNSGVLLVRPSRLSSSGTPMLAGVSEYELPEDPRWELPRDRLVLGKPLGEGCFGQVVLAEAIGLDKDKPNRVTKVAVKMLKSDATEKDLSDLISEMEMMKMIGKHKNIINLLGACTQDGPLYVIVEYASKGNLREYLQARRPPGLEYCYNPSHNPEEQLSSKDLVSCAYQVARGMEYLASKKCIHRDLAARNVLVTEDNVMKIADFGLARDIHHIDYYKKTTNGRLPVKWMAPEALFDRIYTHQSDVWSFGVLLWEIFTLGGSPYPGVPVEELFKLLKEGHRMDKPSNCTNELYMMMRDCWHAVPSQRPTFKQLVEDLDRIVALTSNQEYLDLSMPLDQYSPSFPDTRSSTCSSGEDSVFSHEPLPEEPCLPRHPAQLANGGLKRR
Procedure, shortened: as §1

[23] = biological target: MAP4K5 (Homo sapiens, UniProt Q9Y4K4)
Procedure, shortened: as §1

[24] = biological target: NEK1 (Homo sapiens, UniProt Q96PY6)
Procedure, shortened: as §1

[25] = biological target: SLK (Homo sapiens, UniProt Q9H2G2)
SLK, sequence (Q9H2G2 whole entry): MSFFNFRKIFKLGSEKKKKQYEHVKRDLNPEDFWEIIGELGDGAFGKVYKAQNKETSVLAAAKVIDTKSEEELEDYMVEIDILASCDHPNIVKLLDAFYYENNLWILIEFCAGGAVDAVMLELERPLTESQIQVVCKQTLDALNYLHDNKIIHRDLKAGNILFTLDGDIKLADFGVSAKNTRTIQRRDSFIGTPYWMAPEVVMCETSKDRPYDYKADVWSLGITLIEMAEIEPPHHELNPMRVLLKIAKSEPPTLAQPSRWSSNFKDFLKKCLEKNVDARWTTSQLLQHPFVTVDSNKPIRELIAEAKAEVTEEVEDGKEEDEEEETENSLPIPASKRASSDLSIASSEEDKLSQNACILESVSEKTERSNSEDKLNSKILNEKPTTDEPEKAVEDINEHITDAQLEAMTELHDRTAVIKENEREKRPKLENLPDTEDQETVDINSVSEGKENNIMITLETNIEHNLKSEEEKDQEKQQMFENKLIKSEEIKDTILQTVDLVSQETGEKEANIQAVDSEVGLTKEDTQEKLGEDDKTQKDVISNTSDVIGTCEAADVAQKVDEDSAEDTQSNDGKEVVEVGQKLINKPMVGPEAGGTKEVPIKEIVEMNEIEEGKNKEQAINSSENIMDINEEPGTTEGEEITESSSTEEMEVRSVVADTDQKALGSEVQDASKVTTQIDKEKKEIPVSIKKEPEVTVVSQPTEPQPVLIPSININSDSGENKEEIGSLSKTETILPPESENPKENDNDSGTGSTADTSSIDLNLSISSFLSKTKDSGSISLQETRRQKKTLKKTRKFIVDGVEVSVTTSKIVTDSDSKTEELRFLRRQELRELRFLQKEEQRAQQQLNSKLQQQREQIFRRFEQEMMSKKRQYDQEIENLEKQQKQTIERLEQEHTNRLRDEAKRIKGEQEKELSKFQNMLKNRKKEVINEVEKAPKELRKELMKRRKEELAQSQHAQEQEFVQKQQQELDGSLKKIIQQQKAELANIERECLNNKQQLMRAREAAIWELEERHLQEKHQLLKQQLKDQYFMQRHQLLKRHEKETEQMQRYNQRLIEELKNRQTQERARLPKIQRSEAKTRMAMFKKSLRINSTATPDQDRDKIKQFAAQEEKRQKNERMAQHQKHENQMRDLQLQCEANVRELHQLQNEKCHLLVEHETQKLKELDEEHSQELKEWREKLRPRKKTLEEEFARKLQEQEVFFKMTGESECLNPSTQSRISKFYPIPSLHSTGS
Procedure, shortened: as §1

[26] = biological target: T19, RSK3(Kin.Dom.1-N-terminal) (Homo sapiens, UniProt Q15349)
T19 construct: RSK3(Kin.Dom.1-N-terminal); DNA tag (qPCR read-out)
Procedure, shortened: as §1

[27] = biological target: T20, BTK (Homo sapiens, UniProt Q06187); settings: 1 μM
T20 construct: purchased Ambit (KINOMEscan Max service)
Procedure, shortened: as §1

[28] = biological target: T21, TGFBR2 (Homo sapiens, UniProt P37173)
T21 construct: purchased Ambit Kinomescan (contract screening service)
T21 sequence (P37173 23-567): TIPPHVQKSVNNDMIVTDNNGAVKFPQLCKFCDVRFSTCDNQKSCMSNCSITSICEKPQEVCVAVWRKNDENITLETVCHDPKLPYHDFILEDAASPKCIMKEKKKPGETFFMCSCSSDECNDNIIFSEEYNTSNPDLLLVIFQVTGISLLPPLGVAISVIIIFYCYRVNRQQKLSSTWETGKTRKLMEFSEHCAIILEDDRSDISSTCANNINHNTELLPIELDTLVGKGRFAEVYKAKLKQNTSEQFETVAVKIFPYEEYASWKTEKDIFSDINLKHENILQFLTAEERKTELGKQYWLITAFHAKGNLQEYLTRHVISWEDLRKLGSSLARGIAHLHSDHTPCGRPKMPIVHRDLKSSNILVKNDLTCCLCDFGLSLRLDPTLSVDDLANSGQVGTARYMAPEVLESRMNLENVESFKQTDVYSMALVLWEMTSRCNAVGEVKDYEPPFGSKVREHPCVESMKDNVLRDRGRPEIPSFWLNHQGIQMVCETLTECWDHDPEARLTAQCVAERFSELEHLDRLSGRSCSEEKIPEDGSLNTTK
Procedure, shortened: as §1

[29] = biological target: T22, ARK5 (Homo sapiens, UniProt O60285); settings: 1 μM
T22 construct: DNA tag (qPCR label); purchased Ambit Kinomescan (contract screening)
T22 sequence (O60285 whole entry): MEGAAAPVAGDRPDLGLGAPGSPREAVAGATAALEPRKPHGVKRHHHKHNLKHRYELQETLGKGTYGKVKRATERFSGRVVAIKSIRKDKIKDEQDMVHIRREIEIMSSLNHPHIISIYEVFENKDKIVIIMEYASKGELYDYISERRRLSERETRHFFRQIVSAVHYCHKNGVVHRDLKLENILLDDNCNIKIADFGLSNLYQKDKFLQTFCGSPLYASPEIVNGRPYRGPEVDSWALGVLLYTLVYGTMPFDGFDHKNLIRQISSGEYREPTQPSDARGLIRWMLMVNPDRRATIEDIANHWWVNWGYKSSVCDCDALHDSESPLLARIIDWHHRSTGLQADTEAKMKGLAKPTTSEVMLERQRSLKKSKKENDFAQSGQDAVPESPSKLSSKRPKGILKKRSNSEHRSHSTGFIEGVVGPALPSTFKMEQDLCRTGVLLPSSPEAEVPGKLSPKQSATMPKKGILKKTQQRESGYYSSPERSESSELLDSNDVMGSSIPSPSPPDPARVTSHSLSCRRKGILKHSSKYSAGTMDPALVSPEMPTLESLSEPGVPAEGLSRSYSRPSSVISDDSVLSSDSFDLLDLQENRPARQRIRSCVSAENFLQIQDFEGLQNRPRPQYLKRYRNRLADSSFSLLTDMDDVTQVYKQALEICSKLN
Procedure, shortened: as §1

[30] = biological target: MEK3 (Homo sapiens, UniProt P46734)
Procedure, shortened: as §1

[31] = biological target: T23, CSK (Homo sapiens, UniProt P41240); settings: 1 μM
T23 construct: purchased Ambit (KINOMEscan Max panel service)
Procedure, shortened: as §1

[32] = biological target: T24, FLT3(K663Q) (Homo sapiens, UniProt P36888, K663Q)
T24 construct: purchased Ambit Kinomescan (contract screening)
Procedure, shortened: as §1

[33] = biological target: T25, PRKCD (Homo sapiens, UniProt Q05655)
T25 construct: DNA tag (qPCR read-out)
Procedure, shortened: as §1

[34] = biological target: T26, JNK1 (Homo sapiens, UniProt P45983); settings: 1 μM
T26 construct: purchased Ambit Kinomescan (contract panel)
Procedure, shortened: as §1

SMILES: NCCCNc1nc2c(Br)c(Br)c(Br)c(Br)c2[nH]1 [Compound 11, N-(3-aminopropyl)-4,5,6,7-tetrabromo-1H-benzo[d]imidazol-2-amine]
- remaining binding at 1 µM [1]: 100%
- remaining binding at 1 µM [2]: 100%
- % binding [3]: 99%
- remaining binding at 1 µM [4]: 28%
- remaining binding at 1 µM [5]: 84%
- remaining binding at 1 µM [6]: 100%
- remaining binding at 1 µM [7]: 86%
- remaining binding at 1 µM [8]: 100%
- remaining binding at 1 µM [9]: 100%
- remaining binding at 1 µM [10]: 100%
- remaining binding at 1 µM [11]: 100%
- remaining binding at 1 µM [12]: 91%
- remaining binding at 1 µM [13]: 91%
- remaining binding at 1 µM [14]: 100%
- remaining binding at 1 µM [15]: 87%
- remaining binding at 1 µM [16]: 100%
- remaining binding at 1 µM [17]: 100%
- remaining binding at 1 µM [18]: 23%
- remaining binding at 1 µM [19]: 100%
- remaining binding at 1 µM [20]: 100%
- remaining binding at 1 µM [21]: 83%
- remaining binding at 1 µM [22]: 100%
- remaining binding at 1 µM [23]: 98%
- remaining binding at 1 µM [24]: 100%
- remaining binding at 1 µM [25]: 92%
- remaining binding at 1 µM [26]: 100%
- % binding [27]: 85%
- remaining binding at 1 µM [28]: 100%
- % binding [29]: 100%
- remaining binding at 1 µM [30]: 78%
- % binding [31]: 100%
- remaining binding at 1 µM [32]: 97%
- remaining binding at 1 µM [33]: 56%
- % binding [34]: 100%
